Laboratory results from patent US20250250310A1, “COMBINATION THERAPY WITH ADP-RIBOSE BINDING PEPTIDE AND ADP-RIBOSE FOR PREVENTION OR TREATMENT OF CANCER” (PEARLSINMIRES CO., LTD., priority 2023, published 2025).
Where a SMILES comes first, the peptide text is derived from it. [ ]: non-standard residue; d: D form. The star is where a group is joined. Stearoyl = CCCCCCCCCCCCCCCCCC(=O)*; AEEA = NCCOCCOCC(=O)O

Experiments:
[1] = tested on: PARP inhibitor-resistant breast cancer (HCC1937) cells; test: Cell viability (MTT) in PARP inhibitor-resistant cancer cell line; assay type: cell-based, human; details: 96 hours
Method: Specifically, 2.5×10^3 PARP inhibitor-resistant breast cancer (HCC1937) cells were cultured in a 96-well plate for 24 hours under 37° C. and 5% CO2 conditions.
The cells were then divided into the following groups and treated with each peptide according to Examples at GI50 concentration alone or in combination. • 1) Untreated group • 2) Group treated with PARP inhibitor (Olaparib) at 2 μM concentration • 3) Group treated with ADPR at 1 mM concentration alone • 4) Groups treated with each peptide of Examples 1 to 6 at 25 μM concentration alone • 5) Groups treated with each CPP-peptide of Examples 15 to 20 at 10 μM concentration alone • 6) Group treated in combination with ADPR at 1 mM concentration and each peptide of Examples 1 to 6 at 25 μM concentration (Combination 1) • 6) Group treated in combination with ADPR at 1 mM concentration and CPP-peptide of Examples 15 to 20 at 10 μM concentration (Combination 2)
(§1) The cells were then cultured for another 96 hours under 37° C. and 5% CO2 conditions, and 10 μl of 3-(4,5-dimethylthiazol-2-yl)-2,5-diphenyltetrazolium bromide reagent was added to each well and reacted for 1 hour. The reagent was removed at the end of the reaction, 200 μl of dimethyl sulfoxide was then added to each well, and the absorbance was measured to determine the cell viability.

[2] = tested on: ovarian cancer (OVCAR-3) cells; test: OVCAR-3 cell viability (MTT), peptides and NAD^+ alone or in combination; assay type: cell-based, human; details: NAD^+ 1 mM alone, 96 hours
Method: (§2) Specifically, 2.5×10^3 ovarian cancer (OVCAR-3) cells were cultured in a 96-well plate for 24 hours under 37° C. and 5% CO2 conditions, and then divided into the following groups and treated with each peptide according to Examples at GI50 concentration alone or in combination. • 1) Untreated group • 2) Group treated with NAD^+ at 1 mM concentration alone • 3) Group treated with peptide of Example 2 at 25 μM concentration alone • 4) Group treated with CPP-peptide of Example 16 at 10 μM concentration alone • 5) Group treated in combination with NAD^+ at 1 mM concentration and peptide of Example 2 at 25 μM concentration (Combination 1) • 6) Group treated in combination with NAD^+ at 1 mM concentration and CPP-peptide of Example 16 at 10 μM concentration (Combination 2)
as §1

MDA-MB-231 cancer cells = test: MDA-MB-231 cell viability (MTT), sustained release derivative alone or in combination; assay type: cell-based; details: 96 hours
Method: Each of 2.5×10^3 human-derived pancreatic cancer (Aspc-1), kidney cancer (Caki-1), breast cancer (HCC1937), liver cancer (HepG2), lung cancer (H1975), colon cancer (HCT116), ovarian cancer (OVCAR-3), brain cancer (U87) cells were cultured in a 96-well plate under 37° C. and 5% CO2 conditions for 24 hours, and then treated with the sustained release derivative alone. In addition, MDA-MB-231 cancer cells were divided into the following groups and treated with each formulation at GI20 concentration alone or in combination. • 1) Untreated group • 2) Group treated with sustained-release derivative alone at 5 μM concentration • 3) Group treated with ADPR at 2 mM concentration alone • 4) Group treated with NAD^+ at 2 mM concentration alone • 5) Groups treated with various anti-cancer drugs alone (Cisplatin at 2 μM, Docetaxel at 1 μM, Dichloroacetate at 3 mM, Doxorubicin at 2 μM, Sorafenib at 2 μM, Osimertinib at 10 nM, Trastuzumab at 0.2 μM, Bevacizumab at 0.2 nM, Tamoxifen at 0.2 μM, or Olaparib at 1 μM) • 6) Group treated in combination with ADPR at 2 mM concentration and a sustained-release derivative at 5 μM concentration • 7) Group treated in combination with ADPR at 2 mM concentration, NAD^+ at 2 mM concentration, and a sustained-release derivative at 5 μM concentration • 8) Group treated in combination with ADPR at 2 mM concentration, a sustained-release derivative at 5 μM concentration, and various anti-cancer drugs (same concentration as Group 5 above).
as §1, with “at” for “under”, “CO2,” for “CO2 conditions,”

[3] = tested on: Kidney cancer (Caki-1) cells; test: Caki-1 cell viability (MTT), peptides and ADP-ribose alone or in combination; assay type: cell-based, human; details: treated groups vs untreated, ADPR 1 mM, peptide 25 μM, CPP-peptide 10 μM, 96 hours
Method: (§3) 2.5×10^3 Kidney cancer (Caki-1) cells were cultured in a 96-well plate for 24 hours under 37° C. and 5% CO2 conditions, and then divided into the following groups and treated with each peptide according to Examples at GI50 concentration alone or in combination. • 1) Untreated group • 2) Group treated with ADPR at 1 mM concentration alone • 3) Group treated with peptide of Example 1 at 25 μM concentration alone • 4) Group treated with each CPP-peptide of Example 15 at 10 μM concentration alone • 5) Group treated in combination with ADPR at 1 mM concentration and peptide of Example 1 at 25 μM concentration (Combination 1) • 6) Group treated in combination with ADPR at 1 mM concentration and CPP-peptide of Example 15 at 10 μM concentration (Combination 2)
as §1

[4] = tested on: Breast cancer (HCC1937) cells; test: HCC1937 cell viability (MTT), peptides and ADP-ribose alone or in combination; assay type: cell-based, human; details: treated groups vs untreated, ADPR 1 mM, peptide 25 μM, CPP-peptide 10 μM, 96 hours
Method: as §2, with “2.5×10^3 Breast” for “Specifically, 2.5×10^3 ovarian”, “2.5×10^3 Breast cancer (HCC1937)” for “Specifically, 2.5×10^3 ovarian cancer (OVCAR-3)”, “Breast cancer (HCC1937) cells were” for “ovarian cancer (OVCAR-3) cells were”, “treated with ADPR at 1” for “treated with NAD^+ at 1”, “treated with each CPP-peptide of” for “treated with CPP-peptide of”, “combination with ADPR at 1” for “combination with NAD^+ at 1”
as §1

[5] = tested on: Pancreatic cancer (AsPC-1) cells; test: AsPC-1 cell viability (MTT), peptides and ADP-ribose alone or in combination; assay type: cell-based, human; details: treated groups vs untreated, ADPR 1 mM, peptide 25 μM, CPP-peptide 10 μM, 96 hours
Method: as §3, with “2.5×10^3 Pancreatic” for “2.5×10^3 Kidney”, “cancer (AsPC-1)” for “cancer (Caki-1)”, “Example 3” for “Example 1”, “Example 17” for “Example 15”
as §1

[6] = tested on: Liver cancer (HepG2) cells; test: HepG2 cell viability (MTT), peptides and ADP-ribose alone or in combination; assay type: cell-based, human; details: treated groups vs untreated, ADPR 1 mM, peptide 25 μM, CPP-peptide 10 μM, 96 hours
Method: as §3, with “2.5×10^3 Liver” for “2.5×10^3 Kidney”, “cancer (HepG2)” for “cancer (Caki-1)”, “Example 4” for “Example 1”, “Example 18” for “Example 15”
as §1

[7] = tested on: Lung cancer (H1975) cells; test: H1975 cell viability (MTT), peptides and ADP-ribose alone or in combination; assay type: cell-based, human; details: treated groups vs untreated, ADPR 1 mM, peptide 25 μM, CPP-peptide 10 μM, 96 hours
Method: as §3, with “2.5×10^3 Lung” for “2.5×10^3 Kidney”, “cancer (H1975)” for “cancer (Caki-1)”, “Example 5” for “Example 1”, “Example 19” for “Example 15”
as §1

[8] = tested on: Colon cancer (HCT116) cells; test: HCT116 cell viability (MTT), peptides and ADP-ribose alone or in combination; assay type: cell-based, human; details: treated groups vs untreated, ADPR 1 mM, peptide 25 μM, CPP-peptide 10 μM, 96 hours
Method: as §3, with “2.5×10^3 Colon” for “2.5×10^3 Kidney”, “cancer (HCT116)” for “cancer (Caki-1)”, “Example 6” for “Example 1”, “Example 20” for “Example 15”
as §1

[9] = Normal cytotoxicity of sustained release derivative alone or in combination (MTT); assay type: cell-based; details: human, MRC5 cells (normal), sustained-release derivative alone, read-out: viability of normal cells compared to the untreated group
Method: In a 96-well plate, 2.5×10^3 human-derived normal MRC5 cells were cultured for 24 hours under 37° C. and 5% CO2 conditions, and then treated with the sustained-release derivative and ADPR alone or in combination.
as §1, with “96 hours at 37° C.” for “96 hours under 37° C.”, “and 5% CO2, and 10” for “and 5% CO2 conditions, and 10”, “hour. The MTT reagent was” for “hour. The reagent was”

SMILES: O=C(c1cc(Cc2n[nH]c(=O)c3ccccc23)ccc1F)N1CCN(C(=O)C2CC2)CC1 [Olaparib, reference compound]
- viability at 2 µM ([1]; Homo sapiens, Olaparib 2 μM alone, read-out: cancer cells viable): ~80%

SMILES: NC(=O)c1ccc[n+]([C@@H]2O[C@H](COP(=O)(O)OP(=O)(O)OC[C@H]3O[C@@H](n4cnc5c(N)ncnc54)[C@H](O)[C@@H]3O)[C@@H](O)[C@H]2O)c1 [NAD^+, nicotinamide adenine dinucleotide]
- cell growth / viability vs control group [2]: not significantly different from the control group
- viability at 2000 µM (MDA-MB-231 cancer cells; Homo sapiens, single treatment (derivative 5 μM, ADPR 2 mM, NAD^+ 2 mM, anti-cancer drugs)): 80%

SMILES: Nc1ncnc2c1ncn2[C@@H]1O[C@H](COP(=O)(O)OP(=O)(O)OC[C@H]2O[C@@H](O)C(O)C2O)C(O)C1O (some centres unmarked) [ADP-ribose]
- cell viability [3]: viability was reduced
- cell viability [4]: viability was reduced
- cell viability [5]: viability was reduced
- cell viability [6]: viability was reduced
- cell viability [7]: viability was reduced
- cell viability [8]: viability was reduced
- cell viability, single treatment ([1]; ADPR 1 mM, peptide 25 μM or CPP-peptide 10 μM alone): significantly reduced cell viability
- cell viability (MDA-MB-231 cancer cells; single treatment (derivative 5 μM, ADPR 2 mM, NAD^+ 2 mM, anti-cancer drugs)): 80%

SMILES: CCCCCCCCCCCCCCCCCC(=O)NCCCC[C@H](NC(=O)[C@H](CCCNC(=N)N)NC(=O)[C@H](CCCNC(=N)N)NC(=O)[C@H](CCCNC(=N)N)NC(=O)CNC(=O)[C@H](Cc1c[nH]cn1)NC(=O)[C@H](CCC(=O)O)NC(=O)[C@H](CC(N)=O)NC(=O)[C@H](CCCNC(=N)N)NC(=O)[C@H](CCCNC(=N)N)NC(=O)[C@H](Cc1ccc(O)cc1)NC(=O)[C@H](CCC(N)=O)NC(=O)[C@@H](NC(=O)[C@H](CCSC)NC(=O)[C@H](CC(N)=O)NC(=O)[C@H](CCC(=O)O)NC(=O)[C@H](CC(C)C)NC(=O)[C@H](CC(=O)O)NC(=O)[C@H](C)NC(=O)[C@@H](NC(=O)[C@H](Cc1ccc(O)cc1)NC(=O)[C@H](CC(C)C)NC(=O)[C@H](Cc1ccccc1)NC(=O)[C@H](CCC(N)=O)NC(=O)[C@@H]1CCCN1C(=O)[C@H](CCCNC(=N)N)NC(=O)[C@H](CCCNC(=N)N)NC(=O)[C@H](CCCNC(=N)N)NC(=O)[C@H](CCC(N)=O)NC(=O)[C@H](CCCNC(=N)N)NC(=O)[C@H](CCCNC(=N)N)NC(=O)[C@H](CCCCN)NC(=O)[C@H](CCCCN)NC(=O)[C@H](CCCNC(=N)N)NC(=O)CNC(=O)COCCOCCN)C(C)C)C(C)C)C(=O)N[C@H](C(=O)N[C@@H](CCCCN)C(=O)N[C@@H](CCCNC(=N)N)C(N)=O)[C@@H](C)CC [sustained-release derivative] (H-[AEEA]GRKKRRQRRRPQFLYVADLENMVQYRRNEHGRRRK(Stearoyl)IKR-NH2; C-terminus assumed)
- cytotoxicity, triple-drug combination (MDA-MB-231 cancer cells; sustained-release derivative 5 μM + ADPR 2 mM + NAD^+ 2 mM or various anti-cancer drugs): significantly superior cytotoxicity
- cytotoxicity, combination with ADPR (MDA-MB-231 cancer cells; sustained-release derivative 5 μM + ADPR 2 mM): showed cytotoxicity
- viability at 96 h [9]: ≥ 90%
